Earlier results on 1 molecule are cited in PubChem BioAssay AID1259409 (Chemical Carcinogenesis Research Information System (CCRIS), 2018).

Structures are written as SMILES.

The series has as its system rodent chemically induced tumor inhibition, incidence and multiplicity. Nature of the series: CCRIS tumor inhibitor studies. To be noted: Dose [Inhibitor]: 0.

Turning to `O=C(OC[C@@H]1O[C@H](OC(=O)c2cc(O)c(O)c(OC(=O)c3cc(O)c(O)c(O)c3)c2)[C@@H](OC(=O)c2cc(O)c(O)c(OC(=O)c3cc(O)c(O)c(O)c3)c2)[C@H](OC(=O)c2cc(O)c(O)c(OC(=O)c3cc(O)c(O)c(O)c3)c2)[C@H]1OC(=O)c1cc(O)c(O)c(OC(=O)c2cc(O)c(O)c(O)c2)c1)c1cc(O)c(O)c(OC(=O)c2cc(O)c(O)c(O)c2)c1`, the “tumour outcome (control, treated, inhibition, significance)” value (Carcinogen: 7,12-DIMETHYLBENZ[A]ANTHRACENE : 57-97-6, 17 MG 2/WK FOR 20 WK APPLIED 24 HR POST EACH PROMOTER DOSE (STUDY DURATION: 22 WK), Route [Inhibitor]: DERMAL, Species: MOUSE, Strain/Sex: CF-1/FEMALE, Target Tissue: Type of Lesion: SKIN: PAPILLOMA, Dose [Carcinogen]: 25.6 UG IN 0.2 ML ACETONE ONCE, Promoter: 12-O-TETRADECANOYLPHORBOL-13-ACETATE, 16561-29-8) is reported as 90%, 98%, -9%, not calculated; the “tumour outcome (control, treated, inhibition, significance)” value (Carcinogen: 7,12-DIMETHYLBENZ[A]ANTHRACENE, 57-97-6, 1% IN DIET FOR 35 WK BEGINNING POST CARCINOGEN DOSE (STUDY DURATION: 36 WK), Route [Inhibitor]: ORAL, Species: RAT, Strain/Sex: SPRAGUE-DAWLEY/FEMALE, Target Tissue: Type of Lesion: EAR DUCT: TUMOR, Dose [Carcinogen]: 50 MG/KG BW IN CORN OIL ONCE, Promoter: NONE USED) is 5/15 (33%), 5/15 (33%), 0%, not significant; the “tumour outcome (control, treated, inhibition, significance)” value (Carcinogen: 7,12-DIMETHYLBENZ[A]ANTHRACENE, 57-97-6, 1% IN DIET FOR 35 WK BEGINNING POST CARCINOGEN DOSE (STUDY DURATION: 36 WK), Route [Inhibitor]: ORAL, Species: RAT, Strain/Sex: SPRAGUE-DAWLEY/FEMALE, Target Tissue: Type of Lesion: MAMMARY GLAND: ADENOCARCINOMA, Dose [Carcinogen]: 50 MG/KG BW IN CORN OIL ONCE, Promoter: NONE USED) is 14/15 (93%), 12/15 (80%), 14%, not significant; the “tumour outcome (control, treated, inhibition, significance)” value (Carcinogen: 7,12-DIMETHYLBENZ[A]ANTHRACENE, 57-97-6, 1% IN DIET FOR 35 WK BEGINNING POST CARCINOGEN DOSE (STUDY DURATION: 36 WK), Route [Inhibitor]: ORAL, Species: RAT, Strain/Sex: SPRAGUE-DAWLEY/FEMALE, Target Tissue: Type of Lesion: MAMMARY GLAND: FIBROADENOMA, Dose [Carcinogen]: 50 MG/KG BW IN CORN OIL ONCE, Promoter: NONE USED) was 3/15 (20%), 2/15 (13%), 35%, not significant; the “tumour outcome (control, treated, inhibition, significance)” value (Carcinogen: 7,12-DIMETHYLBENZ[A]ANTHRACENE, 57-97-6, 2.5 UMOL IN 0.4 ML ACETONE 20 MIN PRIOR TO EACH PROMOTER DOSE (STUDY DURATION: 47 WK), Route [Inhibitor]: DERMAL, Species: MOUSE, Strain/Sex: CF-1/FEMALE, Target Tissue: Type of Lesion: SKIN: PAPILLOMA, Dose [Carcinogen]: 100 NMOL IN 0.2 ML ACETONE ONCE) is on record as 94%, 61%, 35%, not calculated; the “tumour outcome (control, treated, inhibition, significance)” value (Carcinogen: 7,12-DIMETHYLBENZ[A]ANTHRACENE, 57-97-6, 5 UMOL IN 0.4 ML ACETONE 20 MIN PRIOR TO EACH PROMOTER DOSE (STUDY DURATION: 47 WK), Route [Inhibitor]: DERMAL, Species: MOUSE, Strain/Sex: CF-1/FEMALE, Target Tissue: Type of Lesion: SKIN: PAPILLOMA, Dose [Carcinogen]: 100 NMOL IN 0.2 ML ACETONE ONCE) is given as 94%, 46%, 51%, not calculated. For the same molecule, the “tumour outcome (control, treated, inhibition, significance)” value by setting is: (Carcinogen: 7,12-DIMETHYLBENZ[A]ANTHRACENE, 57-97-6, 10 UMOL IN 0.4 ML ACETONE 20 MIN PRIOR TO EACH PROMOTER DOSE (STUDY DURATION: 47 WK), Route [Inhibitor]: DERMAL, Species: MOUSE, Strain/Sex: CF-1/FEMALE, Target Tissue: Type of Lesion: SKIN: CARCINOMA, Dose [Carcinogen]: 100 NMOL IN 0.2 ML ACETONE ONCE) 67%, 11%, 84%, not calculated; (Carcinogen: 7,12-DIMETHYLBENZ[A]ANTHRACENE, 57-97-6, 10 UMOL IN 0.4 ML ACETONE 20 MIN PRIOR TO EACH PROMOTER DOSE (STUDY DURATION: 47 WK), Route [Inhibitor]: DERMAL, Species: MOUSE, Strain/Sex: CF-1/FEMALE, Target Tissue: Type of Lesion: SKIN: PAPILLOMA, Dose [Carcinogen]: 100 NMOL IN 0.2 ML ACETONE ONCE) 94%, 43%, 54%, not calculated; (Carcinogen: 7,12-DIMETHYLBENZ[A]ANTHRACENE, 57-97-6, 17 MG 2/WK FOR 2 WK APPLIED 20 MIN PRIOR TO EACH TPA DOSE (STUDY DURATION: 22 WK), Route [Inhibitor]: DERMAL, Species: MOUSE, Strain/Sex: SENCAR/FEMALE, Target Tissue: Type of Lesion: SKIN: PAPILLOMA, Dose [Carcinogen]: 6.4 UG IN 0.2 ML ACETONE ONCE, Promoter: 12-O-TETRADECANOYLPHORBOL-13-ACETATE, 16561-29-8, MEZEREIN, 34807-41-5, Promoter: 12-O-TETRADECANOYLPHORBOL-13-ACETATE, 16561-29-8, MEZEREIN, 34807-41-5) 90%, 94%, -4%, not calculated; (Carcinogen: 7,12-DIMETHYLBENZ[A]ANTHRACENE, 57-97-6, 17 MG 2/WK FOR 18 WK APPLIED 20 MIN PRIOR TO EACH MEZEREIN DOSE (STUDY DURATION: 22 WK), Route [Inhibitor]: DERMAL, Species: MOUSE, Strain/Sex: SENCAR/FEMALE, Target Tissue: Type of Lesion: SKIN: PAPILLOMA, Dose [Carcinogen]: 6.4 UG IN 0.2 ML ACETONE ONCE, Promoter: 12-O-TETRADECANOYLPHORBOL-13-ACETATE, 16561-29-8 : MEZEREIN, 34807-41-5, Promoter: 12-O-TETRADECANOYLPHORBOL-13-ACETATE, 16561-29-8 : MEZEREIN, 34807-41-5) 90%, 62%, 31%, not calculated; (Carcinogen: 7,12-DIMETHYLBENZ[A]ANTHRACENE, 57-97-6, 17 MG 2/WK FOR 20 WK APPLIED 20 MIN PRIOR TO AND 24 HR POST EACH PROMOTER DOSE (STUDY DURATION: 22 WK), Route [Inhibitor]: DERMAL, Species: MOUSE, Strain/Sex: CF-1/FEMALE, Target Tissue: Type of Lesion: SKIN: PAPILLOMA, Dose [Carcinogen]: 25.6 UG IN 0.2 ML ACETONE ONCE, Promoter: 12-O-TETRADECANOYLPHORBOL-13-ACETATE, 16561-29-8) 90%, 16%, 82%, not calculated.
